Data as given in patent US9765092B2, “Tricyclic piperidine compounds” (ACTELION PHARMACEUTICALS LTD, priority 2013, dated 2017).

Molecular target: human TPH1 (Homo sapiens (Human), UniProt P17752)
Experiment: Biochemical in vitro assay using fluorescence readout (TPH1 inhibition)
Details: full length human TPH1, 40 μM L-tryptophan, 15° C., 60 minutes, fluorescence at 540 nm; mean if determined several times

Chain of human TPH1 (P17752 whole entry): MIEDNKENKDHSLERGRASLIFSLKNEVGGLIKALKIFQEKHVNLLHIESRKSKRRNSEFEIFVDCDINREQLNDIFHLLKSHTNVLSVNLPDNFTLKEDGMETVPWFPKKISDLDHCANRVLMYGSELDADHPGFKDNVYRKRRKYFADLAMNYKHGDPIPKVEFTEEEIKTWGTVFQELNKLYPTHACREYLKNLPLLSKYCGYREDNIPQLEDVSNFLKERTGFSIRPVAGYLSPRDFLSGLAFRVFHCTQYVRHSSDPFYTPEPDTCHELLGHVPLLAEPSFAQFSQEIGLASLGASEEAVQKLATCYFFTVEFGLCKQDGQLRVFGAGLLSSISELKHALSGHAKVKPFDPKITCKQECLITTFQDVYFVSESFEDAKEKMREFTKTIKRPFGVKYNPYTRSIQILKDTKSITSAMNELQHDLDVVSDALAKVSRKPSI

| SMILES | IC50 [nM] |
| --- | --- |
| CNC(=O)c1ccc(OCC(=O)N2CCc3nc4sc(C)nn4c3C2c2cc(C(=O)N(C)C)cs2)c(Cl)n1 (stereo not shown) [Example 1.9.6, 6-Chloro-5-(2-(5-(4-(dimethylcarbamoyl)thiophen-2-yl)-2-methyl-7,8-dihydro-[1,3,4]-thiadiazolo[2′,3′:2,3]imidazo[4,5-c]pyridin-6(5H)-yl)-2-oxoethoxy)-N-methyl-picolinamide] | 99 |
| CNC(=O)c1csc(C2c3c(nc4sc(C)nn34)CCN2C(=O)COc2ccc(C(F)(F)F)cc2Cl)n1 (stereo not shown) [Example 1.44.1, 2-(6-(2-(2-Chloro-4-(trifluoromethyl)phenoxy)acetyl)-2-methyl-5,6,7,8-tetrahydro-[1,3,4]thiadiazolo[2′,3′:2,3]imidazo[4,5-c]pyridin-5-yl)-N-methylthiazole-4-carboxamide] | 311 |
| Cc1nn2c3c(nc2s1)CCN(C(=O)COc1ccc(N2CCOCC2)nc1Cl)C3c1nc(C(=O)N(C)C)co1 (stereo not shown) [Example 1.43.1, 2-(6-(2-((2-Chloro-6-morpholinopyridin-3-yl)oxy)acetyl)-2-methyl-5,6,7,8-tetrahydro-[1,3,4]thiadiazolo[2′,3′:2,3]imidazo[4,5-c]pyridin-5-yl)-N,N-dimethyloxazole-4-carboxamide] | 26 |

Same assay, conditions: human TPH1, fluorescence readout

| SMILES | IC50 [nM] |
| --- | --- |
| Cc1nn2c3c(nc2s1)CCN(C(=O)COc1ccc(S(N)(=O)=O)cc1)C3c1ccc(C2CC2)cc1F (stereo not shown) [Example 1.6.12, 4-(2-(5-(4-cyclopropyl-2-fluorophenyl)-2-methyl-7,8-dihydro-[1,3,4]thiadiazolo[2′,3′:2,3]imidazo[4,5-c]pyridin-6(5H)-yl)-2-oxoethoxy)benzenesulfonamide] | 390 |
| CS(=O)(=O)Nc1ccc(OCC(=O)N2CCc3nc4sc(CF)nn4c3C2c2ccc(Cl)cc2F)c(Cl)n1 (stereo not shown) [Example 7.1.1, N-(6-chloro-5-(2-(5-(4-chloro-2-fluorophenyl)-2-(fluoromethyl)-7,8-dihydro-[1,3,4]thiadiazolo[2′,3′:2,3-]imidazo[4,5-c]pyridin-6(5H)-yl)-2-oxoethoxy)pyridin-2-yl)methanesulfonamide] | 8 |
| Cc1nn2c3c(nc2s1)CCN(C(=O)COc1cnc(C(F)(F)F)nc1Cl)C3c1ccc(Cl)cc1F (stereo not shown) [Example 1.4.36, 2-((4-chloro-2-(trifluoromethyl)pyrimidin-5-yl)oxy)-1-(5-(4-chloro-2-fluorophenyl)-2-methyl-7,8-dihydro-[1,3,4]thiadiazolo[2′,3′:2,3]imidazo[4,5-c]pyridin-6(5H)-yl)ethanone] | 38 |
| COC1(C)CN(c2ccc(OCC(=O)N3CCc4nc5sc(C)nn5c4C3c3ccc(Cl)cc3F)c(Cl)n2)C1 (stereo not shown) [Example 1.4.43, 1-(5-(4-chloro-2-fluorophenyl)-2-methyl-7,8-dihydro-[1,3,4]thiadiazolo[2′,3′:2,3]imidazo[4,5-c]pyridin-6(5H)-yl)-2-((2-chloro-6-(3-methoxy-3-methylazetidin-1-yl)pyridin-3-yl)oxy)ethanone] | 35 |
| COc1ccc(C2c3c(nc4sccn34)CCN2C(=O)COc2ccc3ccncc3c2)c(F)c1 (stereo not shown) [Example 6.3.3, 1-(5-(2-fluoro-4-methoxyphenyl)-7,8-dihydrothiazolo[2′,3′:2,3]imidazo[4,5-c]pyridin-6(5H)-yl)-2-(isoquinolin-7-yloxy)ethanone] | 4 |
| CCc1nc(C)ccc1OCC(=O)N1CCc2nc3sc(C)nn3c2C1c1cnc(C2CC2)nc1 (stereo not shown) [Example 1.10.1, 1-(5-(2-cyclopropylpyrimidin-5-yl)-2-methyl-7,8-dihydro-[1,3,4]thiadiazolo[2′,3′:2,3]imidazo[4,5-c]pyridin-6(5H)-yl)-2-((2-ethyl-6-methylpyridin-3-yl)oxy)ethanone] | 187 |
| Cc1nc(C)c(C2c3c(nc4sc(C)nn34)CCN2C(=O)COc2ccc(-c3ncco3)nc2Cl)s1 (stereo not shown) [Example 1.68.3, 2-((2-chloro-6-(oxazol-2-yl)pyridin-3-yl)oxy)-1-(5-(2,4-dimethylthiazol-5-yl)-2-methyl-7,8-dihydro-[1,3,4]thiadiazolo[2′,3′:2,3]imidazo[4,5-c]pyridin-6(5H)-yl)ethanone] | 9 |
| Cc1ccc([C@H]2c3c(nc4sc(C)nn34)CCN2C(=O)COc2ccc(NS(C)(=O)=O)nc2Cl)c(F)c1 [Example 1.53.4] | 8 |
| Cc1nn2c3c(nc2s1)CCN(C(=O)COc1ccc(NS(C)(=O)=O)nc1Cl)C3c1sc(C(F)(F)F)nc1C (stereo not shown) [Example 1.76.1, N-(6-chloro-5-(2-(2-methyl-5-(4-methyl-2-(trifluoromethyl)thiazol-5-yl)-7,8-dihydro-[1,3,4]thiadiazolo[2′,3′:2,3]imidazo[4,5-c]pyridin-6(5H)-yl)-2-oxoethoxy)pyridin-2-yl)methanesulfonamide] | 20 |
| CCc1nc(NS(C)(=O)=O)ccc1OCC(=O)N1CCc2nc3sc(CF)nn3c2C1c1sc(C)nc1C (stereo not shown) [Example 7.4.2, N-(5-(2-(5-(2,4-dimethylthiazol-5-yl)-2-(fluoromethyl)-7,8-dihydro-[1,3,4]thiadiazolo[2′,3′:2,3]imidazo[4,5-c]pyridin-6(5H)-yl)-2-oxoethoxy)-6-ethylpyridin-2-yl)methanesulfonamide] | 7 |
| Cc1noc(C)c1C1c2c(nc3sccn23)CCN1C(=O)COc1ccc(C(F)(F)F)cc1Cl (stereo not shown) [Example 6.5.3, 2-(2-chloro-4-(trifluoromethyl)phenoxy)-1-(5-(3,5-di-methylisoxazol-4-yl)-7,8-dihydrothiazolo[2′,3′:2,3]-imidazo[4,5-c]pyridin-6(5H)-yl)ethanone] | 85 |
| Cc1nn2c3c(nc2s1)CCN(C(=O)COc1ccc(C(F)(F)F)cc1Cl)C3c1scnc1C (stereo not shown) [Example 1.32.3, 2-(2-chloro-4-(trifluoromethyl)phenoxy)-1-(2-methyl-5-(4-methylthiazol-5-yl)-7,8-dihydro-[1,3,4]thiadiazolo [2′,3′:2,3]imidazo[4,5-c]pyridin-6(5H)-yl)ethanone] | 10 |
| Cc1nn2c3c(nc2s1)CCN(C(=O)COc1ccc(C(=O)N(C)C)nc1Cl)C3c1ncc(Cl)cc1F (stereo not shown) [Example 1.33.3, 6-chloro-5-(2-(5-(5-chloro-3-fluoropyridin-2-yl)-2-methyl-7,8-dihydro-[1,3,4]thiadiazolo[2′,3′:2,3]imidazo[4,5-c]pyridin-6(5H)-yl)-2-oxoethoxy)-N,N-dimethylpicolinamide] | 6 |
| CCc1nc(N2CCCS2(=O)=O)ccc1OCC(=O)N1CCc2nc3sc(C(F)F)nn3c2C1c1sc(C)nc1C (stereo not shown) [Example 8.3.2, 1-(2-(difluoromethyl)-5-(2,4-dimethylthiazol-5-yl)-7,8-dihydro-[1,3,4]thiadiazolo[2′,3′:2,3]imidazo[4,5-c]pyridin-6(5H)-yl)-2-((6-(1,1-dioxidoisothiazolidin-2-yl)-2-ethylpyridin-3-yl)oxy)ethanone] | 13 |
| CCc1ncccc1OCC(=O)N1CCc2nc3sccn3c2C1c1ccc(C)cc1F (stereo not shown) [Example 6.10.2, 2-((2-ethylpyridin-3-yl)oxy)-1-(5-(2-fluoro-4-methyl-phenyl)-7,8-dihydrothiazolo[2′,3′:2,3]imidazo[4,5-c]-pyridin-6(5H)-yl)ethanone] | 7 |
| CCc1nc(Cl)ncc1OCC(=O)N1CCc2nc3sc(C)nn3c2[C@@H]1c1ncc(C)cc1F [Example 1.31.18, (R)-2-((2-chloro-4-ethylpyrimidin-5-yl)oxy)-1-(5-(3-fluoro-5-methylpyridin-2-yl)-2-methyl-7,8-dihydro-[1,3,4]thiadiazolo[2′,3′:2,3]imidazo[4,5-c]pyridin-6(5H)-yl)ethanone] | 49 |
